Experimental data as given in patent US20100297262A1, “[…] ACTIVE COMPOSITIONS COMPRISING OXIDATIVE STRESS MODULATORS (OSM), NEW CHEMICAL […], COMPOSITIONS AND USES” (COLBY PHARMACEUTICAL COMPANY, priority 2009, published 2010).
Where two headings read alike, the source gives them in different places.

Tests used:
[1] = Distribution and clearance of alkylTPP compounds (i.v., feeding tritiated compounds, drinking water); conditions: mice
[2] = system: Isolated kidney mitochondria; conditions: Treatment: Superoxide; cited from earlier work
[3] = system: Jurkat cells; conditions: Treatment: H2O2; cited from earlier work
[4] = system: Bovine aortic endothelial cells; conditions: Treatment: H2O2 or hydroperoxyoctadecadienoic acid; cited from earlier work
[5] = system: COS-7 cells; conditions: Treatment: H2O2; cited from earlier work
[6] = system: Friedreich's ataxia patient primary skin fibroblasts; conditions: Treatment: Glutathione depletion; cited from earlier work
[7] = system: Human colon cancer cell lines (HCT116 and RKO); conditions: Treatment: 5-Fluorouracil; cited from earlier work
[8] = system: Rat primary cerebellar granule cells; conditions: Treatment: Ethanol; cited from earlier work
[9] = system: Isolated liver mitochondria; conditions: Treatment: Ferrous iron/ascorbate; cited from earlier work
[10] = in vivo
Protocol: (§1) Pharmacokinetic (PK) studies of PMCol in mice administered 100 mg/kg PMCol p.o. or 5 mg/kg of PMCol i.v., using Liquid Chromatography-Mass Spectroscopic (LC-MS) analyses.

[11] = in vivo; conditions: mouse
Protocol: (§2) In order to test the efficacy of PMCol-C2 or Mito-PMCol-C10 in inhibiting growth of prostate tumors in vivo, the PMCol drug formulation was standardized, the route of its administration was determined and determination of the maximum tolerated dose (MTD), when administered orally or by i.v. injection.

[12] = system: spontaneous TRAMP mouse tumors; assay: TRansgenic Adenocarcinoma of Mouse Prostate (TRAMP) model; assay type: in vivo
Protocol: The inhibitory effect of PMCol on prostate tumor growth is tested in the well characterized […] Adenocarcinoma of Mouse Prostate (TRAMP) model. […] Tumor development in PMCol treated animals was delayed by over 8 weeks as compared to the control animals.

[13] = assay type: physicochemical; conditions: pH 2
[14] = system: LAPC4; assay: Growth of human prostate tumor cells in culture, PMCol; assay type: cell-based
Protocol: as §1
(§3) Mito-PMCol analogs and PMCol were compared for their relative cytostatic/anti-proliferative and cytotoxic and therapeutic activities in tumor cell systems as measured by clonogenic assays and direct live and dead cell counts are performed in a hemacytometer by trypan blue dye exclusion assay or by DNA fluorescence assays following routine published procedures established in our labs.

[15] = system: DU-145; assay: as above; assay type: cell-based
Protocol: as §1, §3

[16] = system: LNCaP; assay: as above; assay type: cell-based
Protocol: as §1, §3

[17] = rat, in vivo, po
Protocol: as §2

[18] = system: LNCaP cells; assay: DNA (Hoechst 33258) fluorescence cell growth assay, Example 12; assay type: cell-based, human; conditions: for cell growth (DNA fluorescence) with logarithmic increase in SAHA concentration: SAHA 0-10 μM
[19] = system: acetyl histone H4; assay: Western blot analysis of acetylated histones
[20] = system: LNCaP cells transfected with the control vector containing scrambled sequence; assay: ROS production in vector control cells; assay type: cell-based, human; conditions: R1881 treatment
[21] = system: LNCaP cells; conditions: cited from earlier work
[22] = system: siSSAT clone; assay: ROS production in siSSAT clone; assay type: cell-based, human; conditions: R1881 treatment
[23] = system: recurrent glioblastoma multiforme; conditions: compared to 4-4.4 months in earlier studies; cited from earlier work
[24] = system: NCI-H460; assay: DNA fluorescence cell growth assay; conditions: any concentration of SAHA
[25] = system: all cell lines; assay: DNA fluorescence cell growth assay, cell lines taken together; assay type: cell-based, human
[26] = system: HDAC
Description: The HDAC activity is expressed as a ratio of HDAC product fluorescence/DNA fluorescence in relative fluorescence unit (FU).

[27] = system: LNCaP cells; assay: LC-MS estimation of intracellular SAHA concentration; conditions: Vitamin E pretreated cells, first 24 hours
Protocol: Ten μL of each extract was used for LC-MS analysis, and the assay was repeated three times.
The solvent gradient and the flow rates were adjusted appropriately. A 5 minute post-run column wash at 10% solvent A, 90% solvent B was maintained at 0.2 ml/min. The column thermostat was maintained at 25° C. for the complete run.
The Mass detector for the mass detection was carried out with Agilent 1100 quadruple moment bench-top mass spectrometer with electrospray ionization in the positive ion mode at 3000 V. For both the single ion MS and scanning MS/MS mode, the desolvation temperature was 340° C. with the drying gas flow rate of 12 l/min at a nebular pressure of 40 psig. […] All data were collected, stored and analyzed using Agilent software for data collection, peak detection and integration.

[28] = system: A549; assay: DNA fluorescence cell growth assay; conditions: any concentration of SAHA
[29] = patients, oral SAHA 400 mg qd, cited from earlier work
[30] = system: PC-3 cells; assay: DNA fluorescence cell growth assay; conditions: SAHA below 10 μM
[31] = system: HT-29; assay: DNA fluorescence cell growth assay; conditions: Vitamin E pretreated
[32] = system: superoxide dismutase (SOD); assay: SOD assay; assay type: cell-based, human; conditions: pretreated with 0.05 nM or 1 nM R1881 prior to 10 μM SAHA
[33] = system: MDA-MB231; assay: DNA fluorescence cell growth assay; conditions: Vitamin E pretreated
[34] = system: advanced non-small-cell lung cancer (NSCLC); conditions: survival improvements not significant at P=0.05; cited from earlier work
[35] = system: latently HIV infected T-Cells; conditions: cited from earlier work
[36] = system: LNCaP cells; assay: Cellular ROS as ratio DCF fluorescence:DNA fluorescence, Example 12
Description: Fluorescence of oxidized DCF dye is proportional to the total cellular ROS. When DCF fluorescence is normalized with the DNA fluorescence from the same well of the 96-well plate, the ratio DCF fluorescence:DNA fluorescence is proportional to the ROS generated per cell.

[37] = system: PC-3 cells; assay: Cellular ROS as ratio DCF fluorescence:DNA fluorescence; conditions: 20 μM Vitamin E (non-toxic dose)
[38] = agent alone: 20 μM Vitamin E, 1 nM R1881 or 2 μM SAHA

CC1(C)CC(OCCCCC[P+](c2ccccc2)(c2ccccc2)c2ccccc2)CC(C)(C)N1[O].[Br-] [Mito-Tempol]
redistribution once in the bloodstream [1]: rapidly redistribute into organs

Cc1c(C)c2c(c(C)c1O)CCC(C)(CC[P+](c1ccccc1)(c1ccccc1)c1ccccc1)O2 (stereo not drawn) [MitoVE-C2]
Outcome: activation of uncoupling proteins [2]: Blocks activation of
Outcome: apoptosis [3]: Decreases apoptosis
Outcome: transferrin receptor expression and iron uptake [4]: fluorescence. Decreases
Outcome: growth factor receptor and kinase phosphorylation [5]: Decreases growth factor
Outcome: cell death [6]: Decreases cell death
Outcome: apoptosis from 5-FU chemotherapy [7]: Decreases apoptosis from 5-
Outcome: dichlorofluorescein fluorescence and cell death [8]: Decreases
Outcome: lipid peroxidation, protein carbonyl formation and loss of membrane potential [9]: Decreases lipid peroxidation,

Cc1c(C)c2c(c(C)c1O)CCC(C)(C)O2 [PMCol, 2,2,5,7,8-pentamethyl-6-chromanol]
oxidized metabolite ([10]; mouse, in vivo): ring-opened PMQ
bioavailability in blood serum ([10]; mouse, in vivo, iv): 0.5 mg/kg
half-life ([10]; mouse, in vivo, iv): 2 h
time after injection within which serum levels went down quickly ([10]; mouse, in vivo, iv, 5 mg/kg): ≤ 2 h
bioavailability in blood serum ([10]; mouse, in vivo, po): 4 mg/kg
half-life ([10]; mouse, in vivo, po): 0.5 h
in vivo metabolism ([10]; mouse, in vivo, po): oxidized in vivo to the hydroxylated-PMCol
time after administration within which serum levels went down quickly ([10]; mouse, in vivo, po, 100 mg/kg): ≤ 15 min
safety of administration [11]: safely administered
MTD ([11]; iv): 7.5 mg/kg
MTD ([11]; po): 100 mg/kg
delay of tumor development as compared to the control animals ([12]; TRAMP model, PMCol treated animals): over 8 weeks
growth of spontaneous TRAMP mouse tumors ([12]; mouse, in vivo): inhibits the growth
acid stability [13]: lability
growth of androgen-dependent LAPC4 cells in culture [14]: inhibits the growth
growth of androgen-independent DU-145 cells in culture [15]: inhibits the growth
growth of androgen-dependent LNCaP cells in culture [16]: inhibits the growth
DLT [17]: 2 grams/kilogram/day

CC1=C(C)C(=O)C(CCC(C)(C)O)=C(C)C1=O [PMQ, 2-(3-hydroxy-3-methylbutyl)-3,5,6-trimethyl-1,4-benzo-quinone]
time the metabolite remained in the serum ([10]; mice, oral PMCol, last time point of PK studies): at least 24 hours
appearance of the LC-MS peak in serum after oral administration of PMCol ([10]; mouse, in vivo, po): appears in serum within minutes

C[C@]1(O)CC[C@H]2[C@@H]3CCC4=CC(=O)CCC4=C3C=C[C@@]21C [R1881]
effect on LNCaP cell growth ([18]; 0.05 nM R1881): growth stimulatory
effect on LNCaP cell growth ([18]; 1 nM or above): growth inhibitory effect
acetyl-histone H4 level [19, 38]: little effect on the acetyl-histone H4 level
ROS production [20]: marked increase
cellular ROS (DCF dye oxidation) compared to 1-10 nM ([21]; R1881 concentrations less than 0.1 nM, Ripple et al. 1997): significantly lower cellular ROS
cellular ROS (DCFH-DA dye oxidation) compared to 1 nM to 10 nM ([21]; metribolone concentrations less than 1 nM, Ripple et al 1997): significantly lower cellular ROS
ROS production [22]: no significant effect on ROS production

O=C(CCCCCCC(=O)Nc1ccccc1)NO [SAHA, Suberoylanilide hydroxamic acid]
cell growth (DNA fluorescence) with logarithmic increase in SAHA concentration ([18]; no R1881): inhibited almost linearly
cell growth (DNA fluorescence) ([18]; normal androgen level (1 nM R1881), even at 10 μM SAHA): little effect on cell growth
cell growth (DNA fluorescence) with logarithmic increase in SAHA concentration ([18]; pretreated with 0.05 nM R1881): inhibited almost linearly
cell growth (DNA fluorescence) ([18]; pretreated with 2 nM R1881, all SAHA concentrations tested): negligible effect on cell growth
acetyl-histone H4 level ([19]; 1 nM R1881 pretreated cells + 2 μM SAHA): marked decrease
acetyl-histone H4 level [19, 38]: small, but significant increase
median overall survival [23]: 5.7 months
change of SAHA sensitivity after Vitamin E pretreatment [24]: do not show any appreciable increase in SAHA sensitivity
nature of the increase in SAHA sensitivity (formalism of Chou and Talalay) ([25]; Vitamin E pretreatment followed by SAHA): synergistic
activity at clinically achievable serum level (~1.3 μM) ([25]; cell lines untreated with Vitamin E or another similar anti-oxidant): inactive
sensitivity to SAHA at a concentration much below the clinically achievable serum level ([25]; prostate, breast and colon cancer cells pretreated with anti-oxidants such as Vitamin E): highly sensitive
HDAC activity with increasing concentrations of SAHA ([26]; R1881 untreated vector control cells, androgen-treated and untreated siSSAT cells): decreases in a similar fashion
HDAC activity with increasing concentrations of SAHA ([26]; vector control cells pretreated with 1 nM R1881): increases after an initial decrease
intracellular SAHA level [27]: no significant decrease
change of SAHA sensitivity after Vitamin E pretreatment [28]: do not show any appreciable increase in SAHA sensitivity
serum SAHA level [29]: ~349 ng/mL
serum SAHA level ([29]; clinically achievable): ~1.3 µM
resistance of PC-3 cells to SAHA [30]: intrinsically resistant
SAHA sensitivity compared to Vitamin E untreated cells [31]: higher in Vitamin E pretreated cells
SOD activity of LNCaP cells [32]: no significant difference in the SOD activity
SAHA sensitivity compared to Vitamin E untreated cells [33]: higher in Vitamin E pretreated cells
response and survival [34]: improved response rates and increased median progression free survival and overall survival
effects against latently HIV infected T-Cells [35]: both in vitro and in vivo effects
cellular ROS (DCF/DNA fluorescence) with increase in SAHA concentration ([36]; no R1881): ROS increases
cellular ROS (DCF/DNA fluorescence) with increase in SAHA concentration ([36]; pretreated with 0.05 nM R1881): negligible effect on total cellular ROS levels
cellular ROS (DCF/DNA fluorescence) with increase in SAHA concentration ([36]; pretreated with 2 nM R1881): negligible effect on total cellular ROS levels

Cc1c(C)c2c(c(C)c1OC(=O)CCC(=O)O)CC[C@@](C)(CCC[C@H](C)CCC[C@H](C)CCCC(C)C)O2 [Vitamin E, αTocopherol succinate]
acetyl histone H4 level ([19]; Vitamin E + R1881 + SAHA): almost completely restores
acetyl-histone H4 level [19, 38]: little effect on the acetyl-histone H4 level
ROS levels [37]: markedly reduces the ROS levels
ROS levels ([36]; 20 μM Vitamin E (non-toxic dose), LNCaP treated and untreated with R1881): markedly reduces the ROS levels
